Test results: patent publication US20250145715A1, “B7-H3 TARGETING FUSION PROTEINS AND METHODS OF USE THEREOF” (GT Biopharma, Inc., priority 2021, published 2025)

Experiments:
Format in all cases: cell-based, human
[1] = system: H929 myeloma cells with MDSC; assay: Myeloma cytotoxicity assay with added MDSC, live cell imaging; conditions: B7-H3 TriKE and NK cells, 48 hours live cell imaging
Procedure: FIGS. 10A-10D illustrate the effect B7-H3-TriKE on MDSC developed from CD33+ myeloid cells from healthy donors, when incubated with myeloma cells at 1:100 ratio. FIG. 10A is a graph showing MDSC (CD14+CD11b+) expression of B7-H3. FIG. 10B is a graph showing cell survival as measured by flow cytometry. FIG. 10C is a plot of live, CD14+ cells FIG. 10D is a graph illustrating H929 growth as measured over 48 hours by live cell imaging.
MDSC were developed from CD33+ myeloid cells from healthy donors using IL-6 and GM-CSF or by incubating them with myeloma cells at 1:100 ratio for seven days.

[2] = system: PC-3 cells; assay: PC3 standard IncuCyte real-time killing assay; conditions: IncuCyte platform
Procedure: FIG. 16 is a graph illustrating a PC3 standard IncuCyte Assay.
Tumor killing was evaluated in real-time using the IncuCyte platform. […] Caspase-3/7 green dye (Sartorious, Ann Arbor, MI, USA) was added to pick up dying cells that have not yet lost NuclightRed fluorescence. Noted treatments were then added at a 30 nM concentration, and the plate was placed in an IncuCyte ZOOM® platform housed inside a cell incubator at 37° C./5% C02. Images from three technical replicates were taken every 15 min for 48 h using a 4× objective lens and then analyzed using IncuCyte™ Basic Software v2018A (Sartorious). Graphed readouts represent percentage live OVCAR8 targets (NuclightRed+Caspase-3/7−), normalized to live targets alone at the starting (0 h) time point.

[3] = system: NCI-H322 lung cancer cells; assay: NK cell CD107a / IFNγ flow cytometry against NCI-H322; conditions: normal donor PBMCs, vs controls
Description: FIGS. 24A-24F illustrate that B7-H3 TriKE enhances NK cell function against lung tumor targets. FIG. 24A is a graph showing pooled analysis of proportion of NK cells from healthy donors expressing CD107a+ against A549(N=6) tumor targets. FIG. 24B is a graph showing pooled analysis of proportion of NK cells from healthy donors expressing IFNγ against A549(N=6) tumor targets. FIG. 24C is a graph showing pooled analysis of proportion of NK cells from healthy donors expressing CD107a+ against NCI-H322 (N=5) tumor targets. FIG. 24D is a graph showing pooled analysis of proportion of NK cells from healthy donors expressing IFNγ against NCI-H322 (N=5) tumor targets. FIG. 24E is a graph showing pooled proportion of NK cells from healthy donors (black bars) or lung cancer patients (white bars) expressing CD107a+ against NCI-H460 (N=7). FIG. 24F is a graph showing pooled proportion of NK cells from healthy donors (black bars) or lung cancer patients (white bars) expressing IFNγ against NCI-H460 (N=7). ** p<0.01, *** p<0.001, and **** p<0.0001.
ADCC was measured in a flow cytometry assay by evaluating degranulation via CD107a (lysosomal-associated membrane protein LAMP-1) and intracellular IFNγ production. […] Samples were washed and evaluated in an LSRII flow cytometer (BD Biosciences, San Jose, CA, USA). […]

B7-H3 TriKE: camelid nanobodies targeting CD16 and B7-H3 joined by IL-15 and two linkers; sequence table equates the name with cam1615B7-H3
MDSC-enhanced myeloma cell growth [1]: overcome
real-time tumor killing of PC-3 cells [2]: enhanced efficacy

cam1615B7-H3: second-generation TriKE: humanized camelid anti-CD16 VHH, human wild-type IL-15, anti-B7-H3 mAb 376.96 scFv; SEQ ID NO:1
NK cell activation against NCI-H322 [3]: significantly and robustly improved NK cell activation
